Data from patent publication US7704924B2, “Library of compounds comprising pyrrolobenzodiazepine moieties” (Spirogen Limited, priority 1998, dated 2010).

System: U937 chronic human histiocytic leukemia cells or K562 human chronic myeloid leukemia cells
Assay: MTT assay of the 27 member PBD library synthesised on crowns (photolytic cleavage, continuous incubation)
Type: cell-based
Conditions: 4 days, with or without UVA (365 nm, 2 h) not given
Description: The ability of agents to inhibit the growth of U937 chronic human histiocytic leukemia cells or K562 human chronic myeloid leukemia cells in culture was measured using the MTT assay (Mosmann, 1983). This is based on the ability of viable cells to reduce a yellow soluble tetrazolium salt, 3-(4,5-dimethylthiazolyl)-2,5-diphenyltetrazolium bromide (MTT; Sigma Chemical Co.), to an insoluble purple formazan precipitate. Following drug treatment, the cells were transferred to 96-well microtitre plates with 10^4 cells per well and 8 wells per sample. The plates were incubated at 37° C. in a humidified atmosphere containing 5% CO2. Following incubation of the plates for 4 days (to allow control cells to increase in number by 10-fold), 20 μL of a 5 mg/mL solution of MTT in phosphate-buffered saline was added to each well and the plates incubated further for 5 hours. […] The optical density was then read at a wavelength of 550 nm on a Titertek Multiscan ELISA plate reader and the dose-response curve constructed. […]
Following incubation of the plates for 4 days (to allow control cells to increase in number by 10-fold), 20 μL of a 5 mg/mL solution of MTT in phosphate-buffered saline was added to each well and the plates further incubated for 5 hours. […] The optical density was then read at a wavelength of 550 nm on a Titertek Multiscan ELISA plate reader and the dose-response curve constructed.

Structure (SMILES): COc1cc2c(cc1OCc1ccccc1)N=C[C@@H]1CCCN1C2=O [Benzyl DC-81, reference compound]
- % Control at 0.3 μM: 47.4%
